These results are taken from publication PMC7551591, “The Effect of Resveratrol or Curcumin on Head and Neck Cancer Cells Sensitivity to the Cytotoxic Effects of Cisplatin” (Nutrients, 2020).

Format in all cases: cell-based, human
The subject of data set [1] is PE/CA-PJ49 tumor cells. The data set can be described thus: MTT drug sensitivity (viability) assay, tumor cells. To be noted: 24 h; for IC50: Homo sapiens; for IC50 / IC 25: MTT; for Selectivity Index (SI): IC50 in HUVEC / IC50 in PE/CA-PJ49. How it is done: The MTT assay is based on the ability of viable cells to reduce the reagent 3-(4,5-dimethylthiazol-2-yl)-2,5-diphenyltetrazolium bromide to colored formazan compounds [48]. Because the transformation is only possible in viable cells, the amount of blue formazan is proportional to the number of viable cells and thus, a linear dependence exists between cell activity and absorbance. Cells were seeded in triplicate in 96-well plates at a density of 5000 cells/well, incubated at 37 °C for 24 h. […] After the incubation period, 20 μL MTT (5 mg/mL in PBS) was added and further incubated for 4 h. The supernatant was removed, and the formazan product was analyzed spectrophotometrically (570 nm) after dissolution in DMSO. Wells without cells serve as a blank, and their absorbance was subtracted from the other results. Untreated cells were used as control and their viability was assumed as 100%. Results were expressed as mean values of three determinations ± standard deviation (SD). Data are presented as percent of cell viability and compared to untreated [Viability% = (T − B)/(U − B) × 100, {where T = absorbance of treated cells; U = absorbance of untreated cells, B = absorbance of blank}]. Once percent viability was obtained, the drug response curve was generated, and inhibitory concentration (IC50 and IC25) was calculated using GraphPad Prism version 5.01 [49].
SI values of more than 2 were considered as indicative of high selectivity.
The anticancer cytotoxic activity in vitro was evaluated by the MTT assay. […] The most widely used and informative measure of a drug’s efficacy is IC50-the half-maximal inhibitory concentration. IC50 was determined at half of the difference between the maximum (plateau) and minimum absorbance values, by plotting the absorbance value at 570 nm (Y axis) versus the concentration of the compound analysed (X axis). The IC50 values were reported as a mean of three independent experiments ± standard deviation (S.D.).

Data set [2] has as its system p21 protein (CIP1/CDKN1A) expression in HUVEC. The data set can be described thus: Total p21 protein ELISA in cell lysates, normal cells. The conditions noted are these: 24 h; for n-fold p21 Protein Expression HUVEC: vs control. How it is done: (§1) After incubation, cells were washed twice with ice-cold PBS, scraped, pelleted and lysed in RIPA buffer (Pierce) supplemented with protease inhibitor cocktail (Roche) and phosphatase inhibitor (Roche) for 30 min on ice. The lysates were transfered into microcentrifuge tubes and centrifuged at 14,000× g for 5 min at 4 °C followed by sonication (10–15 s × 3). The supernatants were collected into clean microcentrifuge tubes and stored at −80 °C. Lysates protein concentration were quantified by BCA protein assay kit (Thermo Scientific) and aliquots of 50 μg of total cell lysate were used for ELISA assay.
(§2) DuoSetR IC ELISA-Human Total p21/CIP1/CDKN1A(: DYC1047-2) was purchased from R&D Systems Inc. and contains the basic components required for the development of sandwich ELISAs to measure human p21 protein also known as CIP1 and CDKN1A in cell lysates. An immobilized capture antibody specifically binds human p21. After washing away unbound material, a biotinylated detection antibody specific for human p21 is used to detect the captured protein, utilizing a standard Streptavidin-HRP format. All experiments were performed in triplicates and absorbance was measured at λ = 450 nm using a Dynex plate reader.
(§3) In cancer development and evolution p21 protein might acts as an oncogene or tumor suppressor and for this reason it could be an important player in processes such as the cancer aggressiveness or the response to chemotherapy. In this study, using ELISA assay we analyzed the expression level of p21 in the tumor cells (PE-CA/PJ49) compared to a normal cells (HUVEC).
(ELISA stands for enzyme-linked immunosorbent assay.)

Data set [3] deals with p21 protein (CIP1/CDKN1A) expression in PE/CA-PJ49. The data set can be described thus: Total p21 protein ELISA in cell lysates, tumor cells. The conditions noted are these: 24 h; for n-fold p21 Protein Expression PE/CA-PJ49: vs control. Here is the method:
as §1, §2, §3

A short description of data set [4]: Annexin V-FITC/PI apoptosis flow cytometry, normal cells. The conditions noted are these: human, HUVEC normal cells, read-out: Q3 (viable cells, FITC−PI−). How it is done:
(§4) The apoptosis assay was carried out with the Annexin V-FITC kit using the manufacturer’s (BD Pharmingen) protocol. Treated and untreated 1 × 10^6 cells/mL were resuspended in cold binding buffer and staining simultaneously with 5 μL FITC-Annexin V (green fluorescence) and 5 μL propidium iodide (PI) in the dark, at room temperature for 15 min. Then, 400μL of Annexin V binding buffer was added and 10,000 cells/sample were acquired using a BD Canto II flow cytometer. The analysis was performed using DIVA 6.2 software in order to discriminate viable cells (FITC^−PI^−) from necrotic cells […] and early apoptosis (FITC^+PI^−) from late apoptosis.
(§5) Apoptosis can be seen as an efficient method of preventing malignant transformation, as it ensures the removal of cells which present with genetic alterations. Deficient apoptosis can promote the development of cancer, both through the accumulation of cells found during division and the blocking of the removal of cells with high malignant potential genetic variations. The factors which determine the cells to follow one of three possible pathways are not yet known – the start of apoptosis after cellular injury, the repair of the lesion or the continuation of the cellular cycle. Many therapeutical agents have anti-tumoral effects generated by their capacity to activate the apoptotic process. […] The flow cytometric analysis was performed using DIVA 6.2 software and allowed to discriminate viable cells (FITC^−PI^− = Q3) from necrotic cells (FITC^−PI^+ = Q1) and early apoptosis (FITC^+PI^− = Q4) from late apoptosis (FITC^+PI^+ = Q2).
For orientation: In flow cytometry, cells or beads pass a laser one at a time.

A further data set has as its system HUVEC normal cells. Described as above. To be noted: 24 h; for Apoptoza Tarzie = Q2 (%): late apoptosis; for Apoptoza Totală = Q2+Q4 (%): total apoptosis. Here is the method:
as §4, §5

Data set [5] deals with PE/CA-PJ49 tumor cells. The data set can be described thus: Cell cycle phase distribution by PI flow cytometry, tumor cells. To be noted: 24 h, RSV 40 μM. How it is done: For analysis of cell-cycle distribution, the cells were collected after treatment, fixed with 70% ethanol for at least one hour at 4 °C. The cells were stained with propidium iodide (PI) an agent which intercalates into the major groove of double-stranded DNA and produces a highly fluorescent adduct that can be excited at 488 nm with a broad emission around 600 nm. Since PI can also bind to double-stranded RNA, it is necessary to treat the cells with RNase for optimal DNA resolution. Cells (1×10^6 cells/mL) were washed in PBS and centrifuge at 300× g, 5 min at 4 °C. The pellet of the cells were incubated for 10 min at 37 °C with 0.5 mg/sample RNase A and then was added 10 μg/sample of PI staining solution to cell pellet, mix well and incubated 10 min at 37 °C. The samples stored at 4 °C until analyzed by flow cytometry. A minimum of 20,000 events for each sample were collected using a FACS CantoII flow cytometer and ModFIT software (BectonDickinson) and used to determine the cell cycle phase distribution after debris exclusion.
The progression through the cell cycle phases induced by treatment were evaluated by flow cytometry using a FACSCanto II flow cytometer. Data analysis were performed using the ModFit 3.2 program which offers the possibility of evaluating the cell cycle phases distribution (G0/G1, S, G2 + M).

As a reminder, the IC50 is the concentration that gives 50% inhibition. Higher therefore signals weaker potency in that assay. For `COc1cc(/C=C/C(=O)CC(=O)/C=C/c2ccc(O)c(OC)c2)ccc1O` [CRM, Curcumin], the “cell viability (MTT)” value with PE/CA-PJ49 tumor cells [1] (15 μM CRM, PE/CA-PJ49 vs HUVEC) is “reduced tumor cell viability compared to normal cells HUVEC”. Moreover, in the data set with PE/CA-PJ49 tumor cells [1] (PE/CA-PJ49), the IC50 was 16.3 ± 3.4 µM and the “IC 25” value was determined as 7.9 ± 1.8 µM. In the data set on PE/CA-PJ49 tumor cells [1], the “Selectivity Index (SI)” value is 3.66. For the same compound, in data set [2] (15 μM CRM), the “p21 pg/mL HUVEC” value is reported as 221 pg/mL and the “n-fold p21 Protein Expression HUVEC” value stood at 1.21. Further, in data set [3] (15 μM CRM), the “p21 pg/mL PE/CA-PJ49” value turned out to be 941 pg/mL and the “n-fold p21 Protein Expression PE/CA-PJ49” value is recorded as 1.51. Further, in data set [4] (15 μM CRM), the viability at 24 h, 15 μM came out at 90.2%. For the same compound, in the data set with HUVEC normal cells (15 μM CRM), the “Early Apoptosis = Q4 (%)” value is given as 6.7%, the “Necrosis = Q1 (%)” value is 2.6%, the “Apoptoza Tarzie = Q2 (%)” value came out at 0.5% and the “Apoptoza Totală = Q2+Q4 (%)” value was found to be 7.2%.

For `Oc1ccc(C=Cc2cc(O)cc(O)c2)cc1` [RSV, 3,5,4′-trihydroxystilbene], in the data set on PE/CA-PJ49 tumor cells [1] (PE/CA-PJ49), the IC50 came out at 46.8 ± 2.6 µM and the “IC 25” value was 17.6 ± 1.5 µM. In the data set on PE/CA-PJ49 tumor cells [1], the “Selectivity Index (SI)” value is recorded as 2.36. The “cell viability (MTT)” value in the data set with PE/CA-PJ49 tumor cells [1] (PE/CA-PJ49, RSV 40 μM vs untreated cells) is “significantly affected”. In data set [2] (40 μM RSV), the “p21 pg/mL HUVEC” value stood at 148 pg/mL and the “n-fold p21 Protein Expression HUVEC” value was 0.81. In addition, in data set [3] (40 μM RSV), the “p21 pg/mL PE/CA-PJ49” value is recorded as 1550 pg/mL and the “n-fold p21 Protein Expression PE/CA-PJ49” value is recorded as 2.48. Besides, in the data set on PE/CA-PJ49 tumor cells [5], the G0/G1% worked out at 39.05% and the G2/M% is 19.41%. The viability at 24 h, 40 μM in data set [4] (40 μM RSV) came to 93.7%. Also, in the data set with HUVEC normal cells (40 μM RSV), the “Early Apoptosis = Q4 (%)” value stood at 4.8%, the “Necrosis = Q1 (%)” value was 1.2%, the “Apoptoza Tarzie = Q2 (%)” value is 0.3% and the “Apoptoza Totală = Q2+Q4 (%)” value stood at 5.1%.
